These results are taken from ChEMBL document CHEMBL1128012, “Non-peptide-based inhibitors of human immunodeficiency virus-1 protease” (Bioorg Med Chem Lett, 1994).

Where only a bound is given, the exact number is not on record here.

The first assay deals with T1, Human immunodeficiency virus type 1 protease (Human immunodeficiency virus 1, UniProt Q72874). The experiment in a line: Inhibitory activity was evaluated against HIV-1 protease.
A word on the IC50: it is the concentration needed to halve the response being measured. A higher IC50 goes with lower potency. `O=C1N(Cc2ccccc2)C(Cc2ccccc2)P(=O)(O)C(Cc2ccccc2)N1Cc1ccccc1` (stereo not drawn) had an IC50 of 21 µM.
Still for that read-out and setting: with `O=C1N(Cc2ccc3ccccc3c2)C(Cc2ccccc2)P(=O)(O)C(Cc2ccccc2)N1Cc1ccc2ccccc2c1` (racemic) the figure was 0.26 µM.
The same measure, in the same setting: in the case of `O=C1NC(Cc2ccccc2)P(=O)(O)C(Cc2ccccc2)N1` (stereo not drawn) it was > 100 µM; in that of `O=C1N(Cc2ccc(CO)cc2)C(Cc2ccccc2)P(=O)(O)C(Cc2ccccc2)N1Cc1ccc(CO)cc1` (racemic), 0.24 µM.
Still for that read-out and setting: in the case of `O=C1NC(Cc2ccccc2)P(=O)(O)C(Cc2ccccc2)N1` (racemic) it was > 100 µM.
Compound `O=C1N(Cc2ccc(CBr)cc2)C(Cc2ccccc2)P(=O)(O)C(Cc2ccccc2)N1Cc1ccc(CBr)cc1` (racemic) returned an IC50 of 0.7 µM.
Still for that read-out and setting: in the case of `O=C1N(Cc2ccc(CO)cc2)C(Cc2ccccc2)P(=O)(O)C(Cc2ccccc2)N1Cc1ccc(CO)cc1` (stereo not drawn) it was 4.8 µM; in that of `O=C1N(Cc2ccc(CBr)cc2)C(Cc2ccccc2)P(=O)(O)C(Cc2ccccc2)N1Cc1ccc(CBr)cc1` (stereo not drawn), 18 µM.

The target in the next assay is T1, Human immunodeficiency virus type 1 protease. Nature of the assay: Inhibitory activity was evaluated against HIV-1 protease; Not Active.
`COP1(=O)C(Cc2ccccc2)N(Cc2ccc(CBr)cc2)C(=O)N(Cc2ccc(CBr)cc2)C1Cc1ccccc1` (stereo not drawn): the IC50 result is recorded as “Not Active”.
The same measure, in the same setting: with `COP1(=O)C(Cc2ccccc2)NC(=O)NC1Cc1ccccc1` (stereo not drawn) the entry was “Not Active”.
On to `COP1(=O)C(Cc2ccccc2)N(Cc2ccc3ccccc3c2)C(=O)N(Cc2ccc3ccccc3c2)C1Cc1ccccc1` (stereo not drawn), for which the IC50 result is recorded as “Not Active”.
For the compound `COP1(=O)C(Cc2ccccc2)N(Cc2ccccc2)C(=O)N(Cc2ccccc2)C1Cc1ccccc1` (stereo not drawn), the IC50 entry was “Not Active”.
As to `COP1(=O)C(Cc2ccccc2)N(Cc2ccc(CO)cc2)C(=O)N(Cc2ccc(CO)cc2)C1Cc1ccccc1` (stereo not drawn), the IC50 entry is given as “Not Active”.
